The test system of assay [1] is NCIH727 cells. The assay can be described thus: Cancer cell line proliferation (CellTiter-Glo), NCI-H727. The assay is classed as cell-based. The conditions noted are these: Homo sapiens, 72 h, NCIH727 lung carcinoid, heterozygous G12V. Summed up: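 NCI-H727 cells (1,000/well) were grown 72 h at 37 °C/5% CO2, then exposed to compound at various concentrations (0.5% DMSO final) for a further 72 h. Viability was read by CellTiter-Glo luminescence, and IC50 values were calculated from the dose-response.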

The target of assay [2] is T1, KRAS(G12V)/SOS1 (Homo sapiens, UniProt P01116, G12V).
T1 construct: purchased Cisbio 63ADK000CB18PEH
T1 sequence (P01116 1-188 isoform P01116-2 G12V): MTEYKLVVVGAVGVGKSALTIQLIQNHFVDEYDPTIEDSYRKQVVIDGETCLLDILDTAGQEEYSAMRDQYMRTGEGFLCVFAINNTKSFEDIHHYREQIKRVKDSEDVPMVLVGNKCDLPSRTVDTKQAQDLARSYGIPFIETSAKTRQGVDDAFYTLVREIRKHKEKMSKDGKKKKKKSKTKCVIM
The assay can be described thus: KRAS(G12V)/SOS1 homogeneous time-resolved fluorescence (HTRF) assay. The assay is classed as binding. Conditions: absence of GTP; 4° C., 3 hours; read-out: HTRF of KRASG12V-SOS1. How it is done: Binding of test compounds to KRAS(G12V) target protein, which in turn blocks KRAS(G12V) interaction with the SOS1 protein, was measured in the absences of GTP by homogeneous time-resolved fluorescence using the KRAS-G12V/SOS1 Binding Assay Kit (Cisbio, 63ADK000CB18PEH), following the manufacturer's instructions, except as noted. 3-fold serial dilutions of each test compound were prepared ranging from 20 µM to 1.02 nM. The test compound was mixed and incubated with reaction components, incubated in a sealed plate at 4° C. for 3 hours and fluorescence was measured using a PerkinElmer Envision plate reader. The KRAS(G12V)-SOS1 IC50 values (the concentration of 50% of the maximal inhibition) were calculated using GraphPad Prism 8.0 software.
A general note: In TR-FRET formats the signal depends on donor and acceptor labels being close together.

Assay [3] relates to SW620 cells. The experiment in a line: Cancer cell line proliferation (CellTiter-Glo), SW620. The conditions noted are these: Homo sapiens, SW-620, SW620 colorectal adenocarcinoma, homozygous G12V, 72 hr. The assay is classed as cell-based. On the procedure:
Cell lines were cultured essentially according to ATCC recommendations. SW620 and NCIH727 cells were plated in 384-well tissue culture plates at 1,000 cells/well and incubated at 37° C./5% CO2 for 72 hr in 40 μl of media. […] Each cell line was then treated with test compounds at various concentrations with a final concentration of 0.5% DMSO/well, and then incubated at 37° C./5% CO2 for 72 hr. 40 μl of CellTiter-Glo® Reagent (Promega Corporation, Madison, WI) was added to each well and processed according manufacturer's protocol. Results were analyzed and IC50 values were calculated in GraphPad 8.0 software.

In general, pEC50 refers to −log10 of the EC50, conventionally taken in molar units. High values mean a low EC50, low ones a high EC50.

SMILES strings stand for the structures. pEC50, pIC50: −log10 of the molar value.

Consider `C#Cc1c(F)ccc2cc(O)cc(-c3ncc4c(N5CC6CCC(C5)N6CC)nc(OCC5(CN6CCC(F)CC6)CC5)nc4c3F)c12` [Example 31], for which the pEC50 in assay [1] and in assay [3] was less than 6.00 throughout. The pIC50 in assay [2] is 6.00 to 7.00.

Consider `C#Cc1c(F)ccc2cc(O)cc(-c3ncc4c(N5CC6CCC(C5)N6C(C)=O)nc(OCC5(CN6CCC(F)CC6)CC5)nc4c3F)c12` [Example 41], for which the pEC50 in assay [1] and in assay [3] was less than 6.00 each time. The pIC50 in assay [2] was 6.00 to 7.00.

For the molecule `C#Cc1c(F)ccc2cc(O)cc(-c3ncc4c(N5CC6CCC(C5)N6C(=O)OCC(C)C)nc(OCC5(CN6CCC(F)CC6)CC5)nc4c3F)c12` [Example 16], the pEC50 in assay [1] and in assay [3] was less than 6.00 in each case. In addition, in assay [2], the pIC50 was 6.00 to 7.00.

With `C#Cc1c(F)ccc2cc(O)cc(-c3ncc4c(N5CC6CCC(C5)N6C(=O)C5(C(F)(F)F)CC5)nc(OCC5(CN6CCC(F)CC6)CC5)nc4c3F)c12` [Example 22], the pEC50 in assay [1] and in assay [3] was less than 6.00 each time. Moreover, the pIC50 in assay [2] was 6.00 to 7.00.

In the case of `C#Cc1c(F)ccc2cc(O)cc(-c3ncc4c(N5CC6CCC(C5)N6C(=O)CC#N)nc(OCC5(CN6CCC(F)CC6)CC5)nc4c3F)c12` [Example 2], the pEC50 in assay [1] and in assay [3] was 6.00 to 7.00 throughout. Further, the pIC50 in assay [2] is greater than 7.00.

`C#Cc1c(F)ccc2cc(O)cc(-c3ncc4c(N5CC6CCC(C5)N6C(=O)N5CCC5)nc(OCC5(CN6CCC(F)CC6)CC5)nc4c3F)c12` [Example 18]: the pEC50 in assay [1] and in assay [3] was less than 6.00 throughout. Besides, the pIC50 in assay [2] was 6.00 to 7.00.

For the molecule `C#Cc1c(F)ccc2cc(O)cc(-c3nc(OC)c4c(N5CC6CCC(C5)N6C(=O)C(C)C(F)(F)F)nc(OCC5(CN6CCC(F)CC6)CC5)nc4c3F)c12` (stereo not drawn) [Example 52], the pEC50 in assay [1] and in assay [3] was less than 6.00 each time. For the same molecule, the pIC50 in assay [2] is greater than 7.00.

With `C#Cc1c(F)ccc2cc(O)cc(-c3ncc4c(N5CC6CCC(C5)N6C(=O)N5CC(OC)C5)nc(OCC5(CN6CCC(F)CC6)CC5)nc4c3F)c12` [Example 24], the pEC50 in assay [1] and in assay [3] was less than 6.00 each time. Besides, the pIC50 in assay [2] was 6.00 to 7.00.

For `C#Cc1c(F)ccc2cc(O)cc(-c3nc(OC)c4c(N5CC6CCC(C5)N6C(=O)NC5CC5)nc(OCC5(CN6CCC(F)CC6)CC5)nc4c3F)c12` [Example 46], the pEC50 in assay [1] and in assay [3] was 6.00 to 7.00 in each case. For the same molecule, the pIC50 in assay [2] is greater than 7.00.

As for `C#Cc1c(F)ccc2cc(O)cc(-c3nc(OC)c4c(N5CC6CCC(C5)N6C(=O)C5CC5(F)F)nc(OCC5(CN6CCC(F)CC6)CC5)nc4c3F)c12` (stereo not drawn) [Example 44], the pEC50 in assay [1] and in assay [3] was 6.00 to 7.00 throughout. For the same molecule, the pIC50 in assay [2] is greater than 7.00.

As for `C#Cc1c(F)ccc2cc(O)cc(-c3ncc4c(N5CC6CCC(C5)N6C(=O)NC(C)C)nc(OCC5(CN6CCC(F)CC6)CC5)nc4c3F)c12` [Example 7], the pEC50 in assay [1] and in assay [3] was less than 6.00 each time. Besides, the pIC50 in assay [2] was greater than 7.00.

Regarding `C#Cc1c(F)ccc2cc(O)cc(-c3ncc4c(N5CC6CCC(C5)N6C(=O)OCC)nc(OCC5(CN6CCC(F)CC6)CC5)nc4c3F)c12` [Example 11], the pEC50 in assay [1] and in assay [3] was 6.00 to 7.00 throughout. Besides, the pIC50 in assay [2] was 6.00 to 7.00.

For `C#Cc1c(F)ccc2cc(O)cc(-c3nc(OC)c4c(N5CC6CCC(C5)N6C(=O)NCC#N)nc(OCC5(CN6CCC(F)CC6)CC5)nc4c3F)c12` [Example 37], the pEC50 in assay [1] and in assay [3] was 6.00 to 7.00 in each case. For the same molecule, the pIC50 in assay [2] was 6.00 to 7.00.

Consider `C#Cc1c(F)ccc2cc(O)cc(-c3ncc4c(N5CC6CCC(C5)N6C(=O)C(C)(C)C)nc(OCC5(CN6CCC(F)CC6)CC5)nc4c3F)c12` [Example 43], for which the pEC50 in assay [1] and in assay [3] was less than 6.00 throughout. Besides, the pIC50 in assay [2] is 6.00 to 7.00.

As to `C#Cc1c(F)ccc2cc(O)cc(-c3ncc4c(N5CC6CCC(C5)N6C(=O)OC(C)(C)C)nc(OCC5(CN6CCC(F)CC6)CC5)nc4c3F)c12` [Example 40], the pEC50 in assay [1] and in assay [3] was less than 6.00 throughout. In addition, the pIC50 in assay [2] was 6.00 to 7.00.

As for `C#Cc1c(F)ccc2cc(O)cc(-c3ncc4c(N5CC6CCC(C5)N6C(=O)OC(C)C)nc(OCC5(CN6CCC(F)CC6)CC5)nc4c3F)c12` [Example 42], the pEC50 in assay [1] and in assay [3] was less than 6.00 in each case. Further, the pIC50 in assay [2] was 6.00 to 7.00.

Take `C#Cc1c(F)ccc2cc(O)cc(-c3ncc4c(N5CC6CCC(C5)N6C(=O)c5c[nH]cn5)nc(OCC5(CN6CCC(F)CC6)CC5)nc4c3F)c12` [Example 30]: the pEC50 in assay [1] and in assay [3] was less than 6.00 each time. Further, in assay [2], the pIC50 was 6.00 to 7.00.

In the case of `C#Cc1c(F)ccc2cc(O)cc(-c3nc(OC)c4c(N5CC6CCC(C5)N6C(=O)NC#N)nc(OCC5(CN6CCC(F)CC6)CC5)nc4c3F)c12` [Example 23], the pEC50 in assay [1] and in assay [3] was less than 6.00 throughout. The pIC50 in assay [2] was 6.00 to 7.00.

With `C#Cc1c(F)ccc2cc(O)cc(-c3ncc4c(N5CC6CCC(C5)N6S(=O)(=O)NC(C)C)nc(OCC5(CN6CCC(F)CC6)CC5)nc4c3F)c12` [Example 25], the pEC50 in assay [1] and in assay [3] was less than 6.00 in each case. The pIC50 in assay [2] was 6.00 to 7.00.

On to `C#Cc1c(F)ccc2cc(O)cc(-c3ncc4c(N5CC6CCC(C5)N6C(=O)NC(C)(C)C)nc(OCC5(CN6CCC(F)CC6)CC5)nc4c3F)c12` [Example 6], for which the negative-log EC50 (pEC50) in assay [1] and in assay [3] was 6.00 to 7.00 in each case. Further, the pIC50 in assay [2] was greater than 7.00.

On to `C#Cc1c(F)ccc2cc(O)cc(-c3ncc4c(N5CC6CCC(C5)N6C(=O)[C@H]5CCN(C(=O)OC)C5)nc(OCC5(CN6CCC(F)CC6)CC5)nc4c3F)c12` [Example 36], for which the pEC50 in assay [1] and in assay [3] was less than 6.00 in each case. The pIC50 in assay [2] is 6.00 to 7.00.

Turning to `C#Cc1c(F)ccc2cc(O)cc(-c3ncc4c(N5CC6CCC(C5)N6C(=O)c5nnn[nH]5)nc(OCC5(CN6CCC(F)CC6)CC5)nc4c3F)c12` [Example 28], the pEC50 in assay [1] and in assay [3] was less than 6.00 each time. For the same molecule, the pIC50 in assay [2] is 6.00 to 7.00.

With `C#Cc1c(F)ccc2cc(O)cc(-c3ncc4c(N5CC6CCC(C5)N6C(=O)CC5CC5)nc(OCC5(CN6CCC(F)CC6)CC5)nc4c3F)c12` [Example 27], the pEC50 in assay [1] and in assay [3] was less than 6.00 throughout. Further, the pIC50 in assay [2] was 6.00 to 7.00.

Regarding `C#Cc1c(F)ccc2cc(O)cc(-c3ncc4c(N5CC6CCC(C5)N6C(=O)NC5CCNC5)nc(OCC5(CN6CCC(F)CC6)CC5)nc4c3F)c12` (stereo not drawn) [Example 49], the pEC50 in assay [1] and in assay [3] was less than 6.00 throughout. For the same molecule, the pIC50 in assay [2] was greater than 7.00.

For `C#Cc1c(F)ccc2cc(O)cc(-c3ncc4c(N5CC6CCC(C5)N6C(=O)CCC#N)nc(OCC5(CN6CCC(F)CC6)CC5)nc4c3F)c12` [Example 3], the pEC50 in assay [1] is less than 6.00; in assay [3], 6.00 to 7.00. Also, the pIC50 in assay [2] was greater than 7.00.

As for `C#Cc1c(F)ccc2cc(O)cc(-c3nc(OC)c4c(N5CC6CCC(C5)N6C(=O)C5CC5)nc(OCC5(CN6CCC(F)CC6)CC5)nc4c3F)c12` [Example 50], the pEC50 in assay [1] and in assay [3] was less than 6.00 in each case. Further, the pIC50 in assay [2] was greater than 7.00.

In the case of `C#Cc1c(F)ccc2cc(O)cc(-c3nc(OC)c4c(N5CC6CCC(C5)N6C(=O)C5(C(F)(F)F)CC5)nc(OCC5(CN6CCC(F)CC6)CC5)nc4c3F)c12` [Example 45], the pEC50 in assay [1] and in assay [3] was less than 6.00 in each case. In addition, in assay [2], the pIC50 was greater than 7.00.

Take `C#CCCC(=O)N1C2CCC1CN(c1nc(OCC3(CN4CCC(F)CC4)CC3)nc3c(F)c(-c4cc(O)cc5ccc(F)c(C#C)c45)ncc13)C2` [Example 47]: the pEC50 in assay [1] and in assay [3] was less than 6.00 throughout. Also, the pIC50 in assay [2] was greater than 7.00.

As for `C#Cc1c(F)ccc2cc(O)cc(-c3nc(OC)c4c(N5CC6CCC(C5)N6C(=O)NC(C)(C)C)nc(OCC5(CN6CCC(F)CC6)CC5)nc4c3F)c12` [Example 21], the pEC50 in assay [1] and in assay [3] was 6.00 to 7.00 in each case. The pIC50 in assay [2] was greater than 7.00.

Regarding `C#Cc1c(F)ccc2cc(O)cc(-c3ncc4c(N5CC6CCC(C5)N6C(=O)NC(C)C(F)(F)F)nc(OCC5(CN6CCC(F)CC6)CC5)nc4c3F)c12` (stereo not drawn) [Example 32], the pEC50 in assay [1] and in assay [3] was less than 6.00 in each case. For the same molecule, the pIC50 in assay [2] is 6.00 to 7.00.

With `C#Cc1c(F)ccc2cc(O)cc(-c3ncc4c(N5CC6CCC(C5)N6S(=O)(=O)CC(C)C)nc(OCC5(CN6CCC(F)CC6)CC5)nc4c3F)c12` [Example 14], the pEC50 in assay [1] is less than 6.00; in assay [3], 6.00 to 7.00. Further, the pIC50 in assay [2] is 6.00 to 7.00.

For the origin of these results see US20260200946A1, “KRAS(G12V) INHIBITORS” (Ranok Therapeutics (Hangzhou) Co. Ltd., priority 2022, published 2026).
